Tests used:
Type in all cases: cell-based
[1] = system: YEM 13 C. albicans BEN up; experiment: microbe, parasite or virus in culture; conditions: YEM 13, 24 hrs, 80% inhibition; for MIC of compound in the presence of fluconazole (+): 1/8 × MIC of fluconazole
[2] = system: YEM 15 C. albicans, CDR1CDR2 up; experiment: microbe, parasite or virus in culture; conditions: YEM 15, 24 hrs, 80% inhibition; for MIC of compound in the presence of fluconazole (+): 1/8 × MIC of fluconazole
YEM 53 C. krusei = experiment: FEPI MIC with/without 1/8 fluconazole MIC at 24 hrs (Table 11); conditions: YEM 53, 24 hrs, 80% inhibition; for MIC of compound in the presence of fluconazole (+): 1/8 × MIC of fluconazole
[3] = system: YEM 17 C. glabrata, CgCDR up; conditions: 24 hrs, 80% inhibition; for MIC of compound in the presence of fluconazole (+): 1/8 × MIC of fluconazole
YEM 51 C. glabrata wt = experiment: FEPI MIC with/without 1/8 fluconazole MIC at 24 hrs (Table 11); conditions: YEM 51, 24 hrs, 80% inhibition; for MIC of compound in the presence of fluconazole (+): 1/8 × MIC of fluconazole
YEM 30 C. albicans wt = experiment: as above; conditions: YEM 30, 24 hrs, 80% inhibition; for MIC of compound in the presence of fluconazole (+): 1/8 × MIC of fluconazole
[4] = system: YEM 24 C. albicans ΔCDR1, ΔCDR2; experiment: microbe, parasite or virus in culture; conditions: YEM 24, 24 hrs, 80% inhibition; for MIC of compound in the presence of fluconazole (+): 1/8 × MIC of fluconazole
[5] = system: YEM 27 C. albicans ΔCDR1ΔCDR2 ΔBENΔFLU1; experiment: microbe, parasite or virus in culture; conditions: YEM 27, 24 hrs, 80% inhibition; for MIC of compound in the presence of fluconazole (+): 1/8 × MIC of fluconazole
Aspergillus fumigatus = experiment: FEPI MICs in combination with 1/4 the azole's MIC (Table 12); parameters: FEPI MIC (alone): unit not given here; conditions: for FEPI MIC with fluconazole, 60% Inh / FEPI MIC with fluconazole, 80% Inh: fluconazole 32 μg/ml (1/4 MIC); for FEPI MIC with fluconazole, 60% Inh / FEPI MIC with itraconazole, 60% Inh / FEPI MIC with ketoconazole, 60% Inh: 60% inhibition; for FEPI MIC with fluconazole, 80% Inh / FEPI MIC with itraconazole, 80% Inh / FEPI MIC with ketoconazole, 80% Inh / FEPI MIC (alone): 80% inhibition; for FEPI MIC with itraconazole, 60% Inh / FEPI MIC with itraconazole, 80% Inh: itraconazole 0.063 μg/ml (1/4 MIC); for FEPI MIC with ketoconazole, 60% Inh / FEPI MIC with ketoconazole, 80% Inh: ketoconazole 4 μg/ml (1/4 MIC); for FEPI MIC (alone): no azole, 35° C., CM Broth
Protocol: The combinations were tested against a series of Candida strain with known expression of efflux pumps or with complete deletion of all known pumps and Aspergillus fumigatus. Results are reported as minimum inhibitory concentration (MIC) of […] in the presence or absence of […]. A total of 27 distinct milbemycins were studied.

Row | Molecule | MIC of compound in the presence of fluconazole (+) [1] | MIC of compound in the absence of fluconazole (−) [1] | MIC of compound in the presence of fluconazole (+) [2] | MIC of compound in the absence of fluconazole (−) [2] | MIC of compound in the presence of fluconazole (+) (YEM 53 C. krusei) | MIC of compound in the absence of fluconazole (−) (YEM 53 C. krusei) | MIC of compound in the presence of fluconazole (+) [3] | MIC of compound in the absence of fluconazole (−) [3] | MIC of compound in the presence of fluconazole (+) (YEM 51 C. glabrata wt) | MIC of compound in the absence of fluconazole (−) (YEM 51 C. glabrata wt) | MIC of compound in the presence of fluconazole (+) (YEM 30 C. albicans wt) | MIC of compound in the absence of fluconazole (−) (YEM 30 C. albicans wt) | MIC of compound in the presence of fluconazole (+) [4] | MIC of compound in the absence of fluconazole (−) [4] | MIC of compound in the presence of fluconazole (+) [5] | MIC of compound in the absence of fluconazole (−) [5] | FEPI MIC with fluconazole, 60% Inh (Aspergillus fumigatus) | FEPI MIC with fluconazole, 80% Inh (Aspergillus fumigatus) | FEPI MIC with itraconazole, 60% Inh (Aspergillus fumigatus) | FEPI MIC with itraconazole, 80% Inh (Aspergillus fumigatus) | other results
1 | C/C1=C\C[C@@H]2CC(C[C@]3(CC[C@H](C)[C@@H](C)O3)O2)OC(=O)c2cc(C)c(O)cc2/C(C)=C/C=C/[C@H](C)C1 [Compound 13, Milbemycin β3] | 64 µg/mL | > 64 µg/mL | 8 µg/mL | > 64 µg/mL | > 64 µg/mL | > 64 µg/mL | 64 µg/mL | > 64 µg/mL | > 64 µg/mL | > 64 µg/mL | 0.125 µg/mL | > 64 µg/mL | > 64 µg/mL | > 64 µg/mL | > 64 µg/mL | > 64 µg/mL | 32 | >64 | 64 | >64 | FEPI MIC with ketoconazole, 60% Inh (Aspergillus fumigatus): 0.5; FEPI MIC with ketoconazole, 80% Inh (Aspergillus fumigatus): 0.5; FEPI MIC (alone) (Aspergillus fumigatus): >64
2 | CCC(C)C1OC2(CC3CC(CC=C(C)C(O)C(C)C=CC=C4COC5C(O)C(C)=CC(C(=O)O3)C45O)O2)CC(O)C1C (stereo not drawn) [Compound 14, Avermectin β2a aglycone] | > 64 µg/mL | > 64 µg/mL | 2 µg/mL | > 64 µg/mL | > 64 µg/mL | > 64 µg/mL | 16 µg/mL | > 64 µg/mL | 16 µg/mL | > 64 µg/mL | 4 µg/mL | > 64 µg/mL | > 64 µg/mL | > 64 µg/mL | > 64 µg/mL | > 64 µg/mL | 64 | >64 | >64 | >64 | FEPI MIC with ketoconazole, 60% Inh (Aspergillus fumigatus): 2; FEPI MIC with ketoconazole, 80% Inh (Aspergillus fumigatus): 16; FEPI MIC (alone) (Aspergillus fumigatus): >64
3 | C/C1=C\C[C@@H]2C[C@@H](C[C@]3(CC[C@H](C)[C@@H](C)O3)O2)OC(=O)[C@@H]2C=C(COC(=O)C(C)C)[C@@H](O)[C@H]3OC/C(=C\C=C\[C@H](C)C1)[C@]32O [Compound 20, 4a-O-isobutyryl milbemycin α1] | 64 µg/mL | > 64 µg/mL | ≦0.03 | > 64 µg/mL | 4 µg/mL | > 64 µg/mL | 4 µg/mL | > 64 µg/mL | 2 µg/mL | > 64 µg/mL | ≦0.06 | > 64 µg/mL | > 64 µg/mL | > 64 µg/mL | 64 µg/mL | > 64 µg/mL | 2 | 4 | 0.25 | 8 | FEPI MIC with ketoconazole, 60% Inh (Aspergillus fumigatus): ≦0.063; FEPI MIC with ketoconazole, 80% Inh (Aspergillus fumigatus): ≦0.063; FEPI MIC (alone) (Aspergillus fumigatus): 64
4 | CCC(C)C1OC2(CC3CC(CC=C(C)C(OC4CC(OC)C(O)C(C)O4)C(C)C=CC=C4COC5C(O)C(C)=CC(C(=O)O3)C45O)O2)CC(O)C1C (stereo not drawn) [Compound 23, Avermectin B2a monoglycoside] | > 64 µg/mL | > 64 µg/mL | 64 µg/mL | > 64 µg/mL | > 64 µg/mL | > 64 µg/mL | > 64 µg/mL | > 64 µg/mL | > 64 µg/mL | > 64 µg/mL | ≦0.03 | > 64 µg/mL | > 64 µg/mL | > 64 µg/mL | > 64 µg/mL | > 64 µg/mL | >64 | >64 | 64 | >64 | FEPI MIC with ketoconazole, 60% Inh (Aspergillus fumigatus): ≦0.063; FEPI MIC with ketoconazole, 80% Inh (Aspergillus fumigatus): 8; FEPI MIC (alone) (Aspergillus fumigatus): >64
5 | C/C1=C\C[C@@H]2C[C@@H](C[C@]3(CC[C@H](C)[C@@H](C)O3)O2)OC(=O)[C@@H]2C=C(COC(=O)Cc3ccccc3)[C@@H](O)[C@H]3OC/C(=C\C=C\[C@H](C)C1)[C@]32O [Compound 25, 4a-O-phenylacetyl milbemycin α1] | > 64 µg/mL | > 64 µg/mL | ≦0.03 | > 64 µg/mL | 0.06 µg/mL | > 64 µg/mL | 2 µg/mL | > 64 µg/mL | 4 µg/mL | > 64 µg/mL | ≦0.03 | > 64 µg/mL | > 64 µg/mL | > 64 µg/mL | > 64 µg/mL | > 64 µg/mL | 1 | 2 | 0.5 | >64 | FEPI MIC with ketoconazole, 60% Inh (Aspergillus fumigatus): ≦0.063; FEPI MIC with ketoconazole, 80% Inh (Aspergillus fumigatus): 0.25; FEPI MIC (alone) (Aspergillus fumigatus): >64
6 | LL-F2849ζ (nemedectinζ) [Compound 17] | > 64 µg/mL | > 64 µg/mL | ≦0.03 | > 64 µg/mL | > 64 µg/mL | > 64 µg/mL | 2 µg/mL | > 64 µg/mL | 0.5 µg/mL | > 64 µg/mL | ≦0.03 | > 64 µg/mL | > 64 µg/mL | > 64 µg/mL | 64 µg/mL | > 64 µg/mL | 64 | 64 | 16 | >64 | FEPI MIC with ketoconazole, 60% Inh (Aspergillus fumigatus): 4; FEPI MIC with ketoconazole, 80% Inh (Aspergillus fumigatus): 4; FEPI MIC (alone) (Aspergillus fumigatus): >64
